From PubChem BioAssay AID328 (DTP/NCI, 2004)
Values joined by “and” are separate entries in the source; they are usually repeats but may differ in a detail not shown here. Equal values may be shown once. Toxic doses and inconclusive results are not listed. Rule for the calls: active = survival T/C of 150% or more; inactive = T/C below 125% in these data.

Tested on: BDF1 mice, P388 leukemia ip, median survival T/C
Experiment: NCI In Vivo Anticancer Drug Screen. Data for tumor model P388 Leukemia (intraperitoneal) in B6D2F1 (BDF1) mice
Conditions: endpoint: median survival time, higher = longer survival
Method in brief: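 Antitumour effect was judged in vivo: survival in drug-treated mice, normalised to that of vehicle-dosed controls, gives the reported T/C.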

[1] = dose: 50.0 mg/kg/injection, schedule: Q01DX009 (ip), vehicle: Klucel (hydroxypropylcellulose) (HPC)
[2] = dose: 100.0 mg/kg/injection, schedule: Q01DX009 (ip), vehicle: Klucel (hydroxypropylcellulose) (HPC)
[3] = dose: 100.0 mg/kg/injection, schedule: Q04DX003 (ip), vehicle: Klucel (hydroxypropylcellulose) (HPC)
[4] = dose: 50.0 mg/kg/injection, schedule: Q01DX009 (ip), vehicle: saline with Tween-80

Measured: T/C

CCN(Cc1ccccc1)c1ccc(/C=C/c2nccc3ccccc23)cc1
inactive: dose: 100.0 mg/kg/injection, schedule: Q04DX002 (ip), vehicle: saline with Tween-80 116 % of control | dose: 200.0 mg/kg/injection, schedule: Q04DX002 (ip), vehicle: saline with Tween-80 116 % of control | dose: 266.0 mg/kg/injection, schedule: Q04DX002 (ip), vehicle: saline with Tween-80 89 % of control | dose: 400.0 mg/kg/injection, schedule: Q04DX002 (ip), vehicle: saline with Tween-80 123 % of control | dose: 600.0 mg/kg/injection, schedule: Q04DX002 (ip), vehicle: saline with Tween-80 117 % of control

CCOC(=O)N1c2ccccc2C=CC1/C(N)=N/O (configuration not stated)
inactive: dose: 25.0 mg/kg/injection, schedule: Q01DX009 (ip), vehicle: Klucel (hydroxypropylcellulose) (HPC) 109 % of control | [1] 95 % of control | dose: 50.0 mg/kg/injection, schedule: Q04DX003 (ip), vehicle: Klucel (hydroxypropylcellulose) (HPC) 95 % of control | [2] 104 % of control | [3] 95 % of control

Cc1ccccc1NS(=O)(=O)c1c([N+](=O)[O-])ncn1C
inactive: [1] 110 % of control | [2] 116 % of control | dose: 200.0 mg/kg/injection, schedule: Q01DX009 (ip), vehicle: Klucel (hydroxypropylcellulose) (HPC) 116 % of control | dose: 400.0 mg/kg/injection, schedule: Q01DX009 (ip), vehicle: Klucel (hydroxypropylcellulose) (HPC) 95 % of control

Clc1ccc(C(c2ccc(Cl)cc2)C(Cl)(Cl)Cl)cc1
inactive: dose: 12.5 mg/kg/injection, schedule: Q01DX009 (ip), vehicle: saline with Tween-80 102 % of control | dose: 25.0 mg/kg/injection, schedule: Q01DX009 (ip), vehicle: saline with Tween-80 102 % of control | [4] 88 % of control

O=C(O)c1cc([N+](=O)[O-])cc([N+](=O)[O-])c1 (tested in a mixture with another compound)
inactive: dose: 3.13 mg/kg/injection, schedule: Q04DX002 (ip), vehicle: saline with Tween-80 100 % of control | dose: 6.25 mg/kg/injection, schedule: Q04DX002 (ip), vehicle: saline with Tween-80 108 % of control | dose: 12.5 mg/kg/injection, schedule: Q04DX002 (ip), vehicle: saline with Tween-80 104 % of control | dose: 25.0 mg/kg/injection, schedule: Q04DX002 (ip), vehicle: saline with Tween-80 112 % of control

COc1cc2ccc3c(c2cc1OC)CN(Cc1ccccc1)CC3
inactive: [3] 100 % of control | dose: 200.0 mg/kg/injection, schedule: Q04DX003 (ip), vehicle: Klucel (hydroxypropylcellulose) (HPC) 109 % of control | dose: 400.0 mg/kg/injection, schedule: Q04DX003 (ip), vehicle: Klucel (hydroxypropylcellulose) (HPC) 100 % of control

COC(=O)C(C#N)=N/C=C/C=C1/N(C)c2ccccc2C1(C)C
inactive: [4] 96 % of control | dose: 100.0 mg/kg/injection, schedule: Q01DX009 (ip), vehicle: saline with Tween-80 92 % of control | dose: 200.0 mg/kg/injection, schedule: Q01DX009 (ip), vehicle: saline with Tween-80 99 % of control

CCCC(=O)OCC1OC(n2cnc3c(=S)nc(N)[nH]c32)C(OC(=O)CCC)C1OC(=O)CCC (configuration not stated)
active: dose: 16.5 mg/kg/injection, schedule: Q04DX003 (ip), vehicle: saline with Tween-80 177 % of control | dose: 25.0 mg/kg/injection, schedule: Q04DX003 (ip), vehicle: saline with Tween-80 154 % of control | dose: 37.5 mg/kg/injection, schedule: Q04DX003 (ip), vehicle: saline with Tween-80 161 % of control

Nc1nc(N)c2cc(N3CCCC3c3ccc(Cl)c(Cl)c3)ccc2n1 (configuration not stated)
inactive: dose: 0.78 mg/kg/injection, schedule: Q01DX009 (ip), vehicle: water 110 % of control | dose: 1.56 mg/kg/injection, schedule: Q01DX009 (ip), vehicle: water 117 % of control | dose: 3.12 mg/kg/injection, schedule: Q01DX009 (ip), vehicle: water 113 % of control | dose: 3.12 mg/kg/injection, schedule: Q04DX003 (ip), vehicle: water 104 % of control and 109 % of control | dose: 6.25 mg/kg/injection, schedule: Q01DX009 (ip), vehicle: water 119 % of control | dose: 6.25 mg/kg/injection, schedule: Q04DX003 (ip), vehicle: water 110 % of control and 116 % of control | dose: 12.5 mg/kg/injection, schedule: Q04DX003 (ip), vehicle: water 108 % of control and 114 % of control | dose: 20.0 mg/kg/injection, schedule: Q04DX003 (ip), vehicle: water 111 % of control | dose: 25.0 mg/kg/injection, schedule: Q04DX003 (ip), vehicle: water 116 % of control

CCCCCC(C[N+]1(C)CCOCC1)C(=O)/C=C/c1ccccc1 (configuration not stated)
inactive: dose: 12.5 mg/kg/injection, schedule: Q01DX009 (ip), vehicle: saline 95 % of control | dose: 25.0 mg/kg/injection, schedule: Q01DX009 (ip), vehicle: saline 120 % of control | dose: 50.0 mg/kg/injection, schedule: Q01DX009 (ip), vehicle: saline 124 % of control

CCCCCCCCCC[N+](C)(C)CCC[N+](C)(C)CCCCCCCCCC
inactive: dose: 0.78 mg/kg/injection, schedule: Q01DX009 (ip), vehicle: saline 87 % of control | dose: 1.56 mg/kg/injection, schedule: Q01DX009 (ip), vehicle: saline 98 % of control | dose: 3.12 mg/kg/injection, schedule: Q01DX009 (ip), vehicle: saline 100 % of control | dose: 3.13 mg/kg/injection, schedule: Q01DX009 (ip), vehicle: saline 120 % of control | dose: 6.25 mg/kg/injection, schedule: Q01DX009 (ip), vehicle: saline 116 % of control and 123 % of control
